Test results: patent US9919034B2, “Methods of treating and prophylactically protecting mammalian patients infected by viruses classified in Baltimore group V” (priority 2014, dated 2018)
Read-outs that look alike come from different tables or passages of the source.

Assays:
vaccinia, strain WR = experiment: microbe, parasite or virus in culture; type: cell-based; settings: read-out: EC50 (concentration reducing plaque numbers by 50%)
Vero 76 cells = experiment: Toxicity in Vero 76 cells (crystal violet staining density)
[1] = test system: adenovirus 2, strain Miller; experiment: Adenovirus yield in NHBE cells (titers in A-549 cells); type: cell-based; settings: for reduction in virus titers: vs untreated infected controls
MERS-CoV virus = type: cell-based
NHBE cells [2] = experiment: Microscopy evaluation of treated NHBE cells (RV-14 study toxicity controls)
VEEV = type: cell-based
NHBE cells [3] = test system: NHBE cells
NHBE cells [4] = experiment: Microscopy evaluation of treated NHBE cells (RSV study toxicity controls); settings: sham infected
RSV A2 = experiment: RSV yield in NHBE cells (titers in MA-104 cells); type: cell-based; settings: all treatments (5 μM, 0.5 μM, 0.1 μM), 48 hours post infection
tRNA = settings: Lin et al., 1994; cited from earlier work
A-72 cells = experiment: Cytotoxicity of ranpirnase in A-72 cells (morphology); settings: any of the concentrations tested, 4 days
[5] = test system: influenza A/California/07/2009(H1N1)pdm09 virus; type: cell-based
RV-14 (strain 1059) = experiment: RV-14 yield in NHBE cells (titers in HeLa-Ohio-1 cells); type: cell-based, rhinovirus-14
NHBE cells [6] = test system: NHBE cells; remark: listed apart in the source

Nc1ccn(C[C@@H](CO)OCP(=O)(O)O)c(=O)n1 [cidofovir, reference compound]
EC50 (vaccinia, strain WR; Orthopoxvirus vaccinia, Vero 76, 48 h): 10 µM | toxicity (Vero 76 cells; dilutions used in the assay): Neither ranpirnase nor cidofovir was toxic

ranpirnase
reduction in virus titers ([1]; 5 μM): ~1 log | reduction in virus titers ([1]; 10 μM): ~1 log | drop in virus titer ([1]; 50 μM, vs placebo): approximately three | virus titers after treatment ([1]; all treatments except the lowest dose): undetectable levels | EC50 (vaccinia, strain WR): 3.8 µM | activity against MERS-CoV virus compared with SARS protease inhibitor and Infergen (viral titer) (MERS-CoV virus): far more active | microscopy evaluation of treated NHBE cells (toxicity) (NHBE cells [2]): no toxicological phenomena | inhibition of VEEV (VEEV): robust inhibition | viability of NHBE cells (NHBE cells [3]): did not decrease the viability | microscopy evaluation of treated NHBE cells (toxicity) (NHBE cells [4]): no toxicological phenomena | reduction in virus titers compared to untreated, infected controls (RSV A2): 2.3 log | virus titers after treatment (RSV A2): undetectable levels | SI (CC50/IC50) (CHIV): over 18 | inhibition of CHIV (CHIV): robust inhibition | degradation of tRNA (tRNA): degrades tRNA very effectively | toxicity (Vero 76 cells; 100 μM): not toxic | toxicity (Vero 76 cells; dilutions used in the assay): Neither ranpirnase nor cidofovir was toxic | cytotoxic effect (visual morphology) (A-72 cells): no apparent cytotoxic effect | activity against influenza A/California/07/2009(H1N1)pdm09 virus (virus titer) [5]: statistically significant and dose-dependent | SI (CC50/IC50) (EBOV): 40-77 | inhibition of EBOV (EBOV): robust inhibition | reduction in virus titers (RV-14 (strain 1059); 1 μM, 4 days post infection): ~1 log | drop in virus titer (RV-14 (strain 1059); 5 μM, 4 days post infection): ~1.67 log 10 | drop in virus titer (RV-14 (strain 1059); 10 μM, 4 days post infection): ~1.67 log 10 | drop in virus titer (RV-14 (strain 1059); 50 μM, 4 days post infection): ~1.67 log 10 | microscopy evaluation of treated NHBE cells (toxicity) (NHBE cells [6]): no toxicological phenomena

CCOC(=O)c1ccc(OCCC2CCN(c3ccc(C)nn3)CC2)cc1 [pirodavir, reference compound]
microscopy evaluation of treated NHBE cells (toxicity) (NHBE cells [2]): no toxicological phenomena | activity against RV-14 (RV-14 (strain 1059); 0.0032 μg/ml, NHBE cells): inactive | inhibition of virus replication (positive control) (RV-14 (strain 1059); 10 and 3.2 μg/ml): inhibited virus replication as expected

Nc1ccn([C@H]2CC[C@@H](CO)O2)c(=O)n1 [2′3′-dideoxycytidine, reference compound]
inhibition of virus replication (positive control) ([1]; NHBE cells, adenovirus MOI 0.1): inhibited virus replication as expected | microscopy evaluation of treated NHBE cells (toxicity) (NHBE cells [4]): no toxicological phenomena | microscopy evaluation of treated NHBE cells (toxicity) (NHBE cells [6]): no toxicological phenomena
